Reference: patent US20070299092A1 (Wyeth, priority 2004, published 2007)
“And” between values parts separate entries of the source, which are not always exact repeats. Identical values can stand only once. Like-named read-outs stand apart in the source and are kept apart here. Each block holds one molecule with its values, some of them ahead of it.

Experiments:
[1] = target: T1, human KDR (VEGF-receptor-2) (Homo sapiens, UniProt P35968); experiment: KDR kinase enzyme assay (DELFIA, KDR-IC-Flag, poly(Glu4-Tyr) peptide); format: biochemical; settings: for inhibition at 0.1 µM: Concentration 100 nM; for inhibition at 0.1 µM / inhibition at 1 µM: read-out: % Inhibition; for inhibition at 1 µM: Concentration 1000 nM
T1 construct: beginning at Met-806; (5′-ATG GAT CCA GAT GM CTC CCA TTG) and ending at Val-1356; made in house

[2] = tested on: Human colon carcinoma DLD-1; experiment: Growth of human tumor xenografts in the nude mouse model; settings: for % T/C Day 7 / % T/C Day 14 / % T/C Day 21 / Relative tumor growth Day 7 / Relative tumor growth Day 14 / Relative tumor growth Day 21: DLD1, nude mouse
Description: Human colon carcinoma DLD-1 cells (American Type Culture Collection, Rockville, Md.) were grown in tissue culture in DMEM (Gibco/BRL, Gaithersburg, Md.) supplemented with 10% FBS (Gemini Bio-Products Inc., Calabasas, Calif.). Athymic nu/nu female mice (Charles River, Wilmington, Mass.) were injected subcutaneously (SC) in the flank area with 6×10^6 DLD-1 cells. When tumors attained a mass of between 75 and 100 mg, the mice were randomly assigned into treatment groups with 5 animals per group. Animals were treated orally (PO) once daily on days 1 through 20 post staging (day zero) with a dose range (50 to 100 mg/kg/dose) of compound prepared in 0.5% Methocel/0.5% Tween 80 or 0.5% Methocel/0.4% Tween 80 as the vehicle control. Tumor mass was determined every 7 days [(length×width^2)/2] for 21 days post-staging. Relative tumor growth (mean tumor mass on days 7, 14 and 21 divided by the mean tumor mass on day zero) was determined for each treatment group.

[3] = tested on: Human umbilical vein endothelial cells (HUVEC); experiment: HUVEC proliferation assay, VEGF-dependent growth ([3H]-thymidine incorporation); format: cell-based
Description: Cells were plated into 96-well dishes (4000 cells per well) and allowed to attach overnight. HUVEC were rinsed one time with 100 μl of EBMc-V (EBM supplemented with all above components except serum or VEGF), then 50 ul of EBMc-V was added to cells. Compounds were prepared at 200× stocks in DMSO, diluted into EBMc-V media as 4× stocks, then 50 ul added to appropriate wells. Finally, 100 μl of 2×VEGF (100 ng/ml prepared in EBMc-V; final 50 ng/ml VEGF) was added to all VEGF-treated wells. EBMc-V (no VEGF) was added to negative control wells. Parallel compound-treated plates were prepared except that 100 μl of EGM2 media containing 2% serum but lacking VEGF (EGMc-V) was added. Cells were incubated for 4-5 days at 37° C.
DNA synthesis was assessed by thymidine incorporation. Cells were incubated for 5 hours in 1 μCi of [^3H]-thymidine (PerkinElmer) by addition of 10 ul of 0.1 μCi/ul thymidine prepared in PBS to each well. After incubation, media was aspirated and the cells trypsinized and collected onto a mat using a vacuum-based Micro Cell Harvester (Skatron). [^3H]-thymidine was counted in a liquid scintillation counter. Compounds evaluated for ability to inhibit VEGF-dependent growth of human umbilical vein endothelial cells (HUVEC).

KDR = KDR (Homo sapiens, UniProt P35968); experiment: cell-based; settings: for inhibition at 1 µM: read-out: % Inhibition of KDR kinase autophosphorylation in KDR15 cells, compound conc. 1000 nM
[4] = target: T1, human KDR (VEGF-receptor-2); experiment: KDR kinase enzyme assay wash-out experiments (irreversible inhibition); format: biochemical
Description: To determine if compounds bound irreversibly to enzyme, plates were washed after the enzyme plus compound pre-incubation step and prior to the addition of ATP. Parallel plates were tested wherein one plate was processed exactly as above while a second plate was washed three times in 100 μl of 4 mM HEPES, pH 7.4, to remove unbound compound. 1× Kinase buffer (30 μl of 1 mM MnCl2, 4 mM HEPES, pH 7.4, 20 μM Na3VO4) and 20 μl of ATP/MgCl2 were added to the wash-out plate. Detection of phosphotyrosinylated peptide for both plates was performed as described above.
For each inhibitor shown in Table 2, two IC50 determinations are shown, one under normal conditions and the other where an intermediate wash-out step is carried out. […] If there was a large increase in the IC50 value in the wash-out experiment compared to the experiment where there was no wash-out, then it was determined that the compound was behaving as a conventional reversible binding inhibitor.

[5] = Table 6, dose not given, administered on days 1 through 20
[6] = Homo sapiens, HUVEC, conc. 10000 nM
[7] = 50 mg/kg/dose PO, days 1 through 20
[8] = 100 mg/kg/dose PO, days 1 through 20

Sequence of KDR (P35968 20-1356): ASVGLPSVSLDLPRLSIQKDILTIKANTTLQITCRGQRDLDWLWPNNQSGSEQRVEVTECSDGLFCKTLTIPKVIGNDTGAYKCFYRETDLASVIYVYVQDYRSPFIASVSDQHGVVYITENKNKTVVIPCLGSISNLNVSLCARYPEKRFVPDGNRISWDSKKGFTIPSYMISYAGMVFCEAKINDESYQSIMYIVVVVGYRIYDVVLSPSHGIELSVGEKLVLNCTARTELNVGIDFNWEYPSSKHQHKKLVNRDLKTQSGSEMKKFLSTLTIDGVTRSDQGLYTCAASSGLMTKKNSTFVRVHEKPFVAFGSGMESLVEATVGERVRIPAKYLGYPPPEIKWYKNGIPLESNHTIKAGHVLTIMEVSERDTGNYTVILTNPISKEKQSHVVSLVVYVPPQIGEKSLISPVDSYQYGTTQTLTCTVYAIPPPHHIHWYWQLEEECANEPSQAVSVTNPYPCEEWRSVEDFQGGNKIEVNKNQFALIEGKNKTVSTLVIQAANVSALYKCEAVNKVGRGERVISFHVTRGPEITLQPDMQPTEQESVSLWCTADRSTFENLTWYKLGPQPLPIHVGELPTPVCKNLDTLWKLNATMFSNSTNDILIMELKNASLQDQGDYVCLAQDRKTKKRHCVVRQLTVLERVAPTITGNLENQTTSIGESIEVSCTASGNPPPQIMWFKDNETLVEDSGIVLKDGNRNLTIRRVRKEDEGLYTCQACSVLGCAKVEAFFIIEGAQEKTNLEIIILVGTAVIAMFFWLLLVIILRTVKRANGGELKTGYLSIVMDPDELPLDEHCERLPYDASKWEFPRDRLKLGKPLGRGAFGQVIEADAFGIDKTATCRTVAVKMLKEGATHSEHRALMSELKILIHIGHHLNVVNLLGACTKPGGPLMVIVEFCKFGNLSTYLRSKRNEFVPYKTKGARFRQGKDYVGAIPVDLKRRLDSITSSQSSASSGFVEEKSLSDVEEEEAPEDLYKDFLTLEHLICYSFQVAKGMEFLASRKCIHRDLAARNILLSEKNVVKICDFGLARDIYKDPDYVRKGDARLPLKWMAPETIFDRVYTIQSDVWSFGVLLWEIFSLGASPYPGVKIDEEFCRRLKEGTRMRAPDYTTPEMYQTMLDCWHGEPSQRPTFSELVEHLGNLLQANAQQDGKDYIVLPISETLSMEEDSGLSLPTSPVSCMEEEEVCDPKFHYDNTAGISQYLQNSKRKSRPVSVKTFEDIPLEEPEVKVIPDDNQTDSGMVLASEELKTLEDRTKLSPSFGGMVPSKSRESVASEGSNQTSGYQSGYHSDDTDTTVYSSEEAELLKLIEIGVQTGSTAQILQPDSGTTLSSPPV
T1 sequence (P35968 806-1356): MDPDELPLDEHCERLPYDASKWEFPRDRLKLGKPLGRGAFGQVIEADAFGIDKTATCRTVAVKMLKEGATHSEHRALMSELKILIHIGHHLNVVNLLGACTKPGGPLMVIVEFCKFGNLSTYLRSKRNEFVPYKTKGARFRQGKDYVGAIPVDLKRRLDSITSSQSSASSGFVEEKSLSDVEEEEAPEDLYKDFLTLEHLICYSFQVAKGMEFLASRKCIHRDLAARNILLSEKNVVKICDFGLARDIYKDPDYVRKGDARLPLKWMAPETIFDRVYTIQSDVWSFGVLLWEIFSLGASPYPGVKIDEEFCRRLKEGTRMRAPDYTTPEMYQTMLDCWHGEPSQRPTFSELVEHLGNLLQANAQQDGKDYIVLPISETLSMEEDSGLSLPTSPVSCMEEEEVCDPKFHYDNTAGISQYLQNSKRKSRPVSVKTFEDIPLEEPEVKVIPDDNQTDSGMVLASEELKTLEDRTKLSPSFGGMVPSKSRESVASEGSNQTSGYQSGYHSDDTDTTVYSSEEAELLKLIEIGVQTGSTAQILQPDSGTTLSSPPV

SMILES: COCCOc1cc2ncnc(NC3=C(SC)C(=O)C(Cl)=C(OC)C3=O)c2cc1OC [Example 190, 2-chloro-3-methoxy-5-{[6-methoxy-7-(2-methoxyethoxy)quinazolin-4-yl]amino}-6-(methylthio)benzo-1,4-quinone]
% T/C Day 7 [2, 5]: 61%
% T/C Day 14 [2, 5]: 94%
% T/C Day 21 [2, 5]: 76%
Relative tumor growth Day 7 [2, 5]: 1.58
Relative tumor growth Day 14 [2, 5]: 7.41
Relative tumor growth Day 21 [2, 5]: 10.74

SMILES: COCCOc1cc2ncnc(NC3=CC(=O)C(Oc4ccc(-n5ccnc5)cc4)=CC3=O)c2cc1OC [Example 26, 2-[4-(1H-imidazol-1-yl)phenoxy]-5-{[6-methoxy-7-(2-methoxyethoxy)quinazolin-4-yl]amino}benzo-1,4-quinone]
inhibition at 10 µM [3, 6]: 89%
% Inhibition of VEGF-dependent growth of HUVEC ([3]; conc. 10000 nM): 96% and 99% and 95% and 87% and 91%
S/T = # of Survivors/# of Treated on Day +21 post tumor staging [2, 7]: 5/5
% T/C Day 7 [2, 7]: 84%
% T/C Day 14 [2, 7]: 62%
% T/C Day 21 [2, 7]: 61%
Relative tumor growth Day 7 [2, 7]: 4.21
Relative tumor growth Day 14 [2, 7]: 6.93
Relative tumor growth Day 21 [2, 7]: 10.50
S/T = # of Survivors/# of Treated on Day +21 post tumor staging [2, 8]: 5/5
% T/C Day 7 [2, 8]: 67%
% T/C Day 14 [2, 8]: 55%
% T/C Day 21 [2, 8]: 51%
Relative tumor growth Day 7 [2, 8]: 3.36
Relative tumor growth Day 14 [2, 8]: 6.10
Relative tumor growth Day 21 [2, 8]: 8.80

SMILES: COCCOc1cc2ncnc(NC3=CC(=O)C(N4CCCC4C(F)(F)F)=CC3=O)c2cc1OC (stereo not shown) [Example 150, 2-{[6-methoxy-7-(2-methoxyethoxy)quinazolin-4-yl]amino}-5-[2-(trifluoromethyl)pyrrolidin-1-yl]benzo-1,4-quinone]
% T/C Day 7 [2, 5]: 63%
% T/C Day 14 [2, 5]: 82%
% T/C Day 21 [2, 5]: 88%
Relative tumor growth Day 7 [2, 5]: 1.62
Relative tumor growth Day 14 [2, 5]: 6.45
Relative tumor growth Day 21 [2, 5]: 12.54

SMILES: COCCOc1cc2ncnc(NC3=CC(=O)C(N4CCCCC4)=CC3=O)c2cc1OC [Example 101, 2-{[6-methoxy-7-(2-methoxyethoxy)quinazolin-4-yl]amino}-5-piperidin-1-yl-benzo-1,4-quinone]
inhibition at 0.1 µM ([3]; Homo sapiens, HUVEC, conc. 100 nM): 12%
inhibition at 1 µM ([3]; Homo sapiens, HUVEC, conc. 1000 nM): 36%
inhibition at 10 µM [3, 6]: 94%
melting point: 197 to 200 °C

SMILES: COCCOC1=CC(=O)C(Nc2ncnc3cc(OCCOC)c(OC)cc23)=CC1=O
melting point: 211 to 212 °C

SMILES: COc1cc2ncnc(NC3=CC(=O)C(N4CCOCC4)=CC3=O)c2cc1OC [Example 84, 2-[(6,7-dimethoxyquinazolin-4-yl)amino]-5-morpholin-4-ylbenzo-1,4-quinone]
inhibition at 1 µM ([1]; ATP conc. 10 μM): 88%
inhibition at 1 µM ([1]; ATP conc. 1000 μM): 82%
melting point: 249 to 250 °C
inhibition at 1 µM (KDR): 4%

SMILES: COc1cc2ncnc(NC3=CC(=O)C(N4CCCCC4)=CC3=O)c2cc1OC [Example 87, 2-[(6,7-dimethoxyquinazolin-4-yl)amino]-5-piperidin-1-ylbenzo-1,4-quinone]
inhibition at 0.1 µM ([1]; ATP conc. 10 μM): 19%
inhibition at 1 µM ([1]; ATP conc. 10 μM): 72%
inhibition at 1 µM ([1]; ATP conc. 1000 μM): 85%
melting point: 226 to 227 °C

SMILES: COc1cc2ncnc(NC3=CC(=O)C(N(C)c4ccccc4)=CC3=O)c2cc1OC [Example 85, 2-[(6,7-dimethoxyquinazolin-4-yl)amino]-5-[methyl(phenyl)amino]benzo-1,4-quinone]
inhibition at 0.1 µM ([1]; ATP conc. 10 μM): 20%
inhibition at 1 µM ([1]; ATP conc. 10 μM): 62%
inhibition at 1 µM ([1]; ATP conc. 1000 μM): 64%
melting point: 204 to 206 °C

SMILES: COCCOc1cc2ncnc(NC3=CC(=O)C(Oc4ccccc4)=CC3=O)c2cc1OC
melting point: 177 to 180 °C

SMILES: COc1cc2ncnc(NC3=CC(=O)C(Nc4ccccc4)=CC3=O)c2cc1OC [Example 86, 2-anilino-5-[(6,7-dimethoxyquinazolin-4-yl)amino]benzo-1,4-quinone]
IC50 ([1]; ATP conc. 10 μM): 0.0407 µM
inhibition at 0.1 µM ([1]; ATP conc. 10 μM): 58%
inhibition at 1 µM ([1]; ATP conc. 10 μM): 93%
inhibition at 1 µM ([1]; ATP conc. 1000 μM): 96%
IC50 ([4]; no wash): 0.0407 µM
IC50 ([4]; wash out): 0.0571 µM
melting point: 258 to 261 °C

Results, then the molecule that gave them:

inhibition at 0.1 µM ([1]; ATP conc. 10 μM): 92%
inhibition at 1 µM ([1]; ATP conc. 10 μM): 93%
inhibition at 1 µM ([1]; ATP conc. 1000 μM): 97%
melting point: 171 to 172 °C
SMILES: COCCOc1cc2ncnc(NC3=CC(=O)C(Oc4ccc(C)cc4)=CC3=O)c2cc1OC [Example 92, 2-{[6-methoxy-7-(2-methoxyethoxy)quinazolin-4-yl]amino}-5-(4-methylphenoxy)benzo-1,4-quinone]

inhibition at 0.1 µM ([1]; ATP conc. 10 μM): 11%
inhibition at 1 µM ([1]; ATP conc. 10 μM): 18%
inhibition at 1 µM ([1]; ATP conc. 1000 μM): -12%
melting point: 283 to 285 °C
SMILES: CNC1=CC(=O)C(Nc2ncnc3cc(OC)c(OC)cc23)=CC1=O [Example 89, 2-[(6,7-dimethoxyquinazolin-4-yl)amino]-5-(methylamino)benzo-1,4-quinone]

melting point: 215 to 220 °C
SMILES: COc1cc2c(NC3=CC(=O)C(Cl)=CC3=O)ncnc2cc1OCC1CCCCO1 (stereo not shown) [Example 345, 2-chloro-5-{[6-methoxy-7-(tetrahydro-2H-pyran-2-ylmethoxy)quinazolin-4-yl]amino}benzo-1,4-quinone]

inhibition at 0.1 µM ([1]; ATP conc. 10 μM): 28%
inhibition at 1 µM ([1]; ATP conc. 10 μM): 63%
inhibition at 1 µM ([1]; ATP conc. 1000 μM): 48%
melting point: 245 to 250 °C
inhibition at 1 µM (KDR): 32%
SMILES: COc1cc2ncnc(NC3=CC(=O)C(N(C)C)=CC3=O)c2cc1OC [Example 88, 2-[(6,7-dimethoxyquinazolin-4-yl)amino]-5-(dimethylamino)benzo-1,4-quinone]

melting point: 252 to 253 °C
SMILES: COc1cc2ncnc(NC3=CC(=O)C4(c5ccccc5)OC4C3=O)c2cc1OC (stereo not shown) [Example 100, 4-[(6,7-dimethoxyquinazolin-4-yl)amino]-1-phenyl-7-oxabicyclo[4.1.0]hept-3-ene-2,5-dione]

melting point: 200 to 210 °C
SMILES: COCCOc1cc2ncnc(NC3=CC(=O)C(Br)=CC3=O)c2cc1OC [Example 231, 2-bromo-5-{[6-methoxy-7-(2-methoxyethoxy)quinazolin-4-yl]amino}benzo-1,4-quinone]

IC50 ([4]; no wash): 0.0598 µM
IC50 ([4]; wash out): 0.0826 µM
melting point: 104 to 108 °C
inhibition at 1 µM (KDR): 68%
SMILES: COCCOc1cc2ncnc(NC3=CC(=O)C4(Cc5ccccc5)OC4C3=O)c2cc1OC (stereo not shown) [Example 108, 1-benzyl-4-{[6-methoxy-7-(2-methoxyethoxy)quinazolin-4-yl]amino}-7-oxabicyclo[4.1.0]hept-3-ene-2,5-dione]

melting point: 109 to 115 °C
SMILES: COCCOc1cc2ncnc(NC3=CC(=O)C(Oc4ccc(-n5ccnc5)cc4)=CC3=O)c2cc1OCCOC [Example 341, 2-{[6,7-bis(2-methoxyethoxy)quinazolin-4-yl]amino}-5-[4-(1H-imidazol-1-yl)phenoxy]benzo-1,4-quinone]

melting point: 188 to 190 °C
SMILES: COc1cc2ncnc(NC3=CC(=O)C4(C(C)C)OC4C3=O)c2cc1OC (stereo not shown) [Example 107, 4-[(6,7-dimethoxy-4-quinazolinyl)amino]-1-isopropyl-7-oxabicyclo[4.1.0]hept-3-ene-2,5-dione]

IC50 ([1]; ATP conc. 10 μM): 0.0037 µM
inhibition at 0.1 µM ([1]; ATP conc. 10 μM): 85%
inhibition at 1 µM ([1]; ATP conc. 10 μM): 96%
inhibition at 1 µM ([1]; ATP conc. 1000 μM): 98%
IC50 ([4]; no wash): 0.0042 µM
IC50 ([4]; wash out): 0.0065 µM
melting point: 228 to 234 °C
SMILES: COc1cc2ncnc(NC3=CC(=O)C(Oc4ccccc4)=CC3=O)c2cc1OC [Example 95, 2-[(6,7-dimethoxyquinazolin-4-yl)amino]-5-phenoxybenzo-1,4-quinone]

IC50 ([4]; no wash): 0.0786 µM
IC50 ([4]; wash out): 0.128 µM
IC50 (KDR; IC50 (nM), inhibition of KDR kinase autophosphorylation in KDR15 cells, KDR15 cells, VEGF 50 ng/ml, phospho-KDR-Y996 immunoblot): 175 to 210 nM
SMILES: COCCOc1cc2ncnc(NC3=CC(=O)C(OCCN(C)c4ccccc4)=CC3=O)c2cc1OC [Example 222, 2-{[6-methoxy-7-(2-methoxyethoxy)quinazolin-4-yl]amino}-5-{2-[methyl(phenyl)amino]ethoxy}benzo-1,4-quinone]
